Data: patent publication US10435396B2, “2-substituted indazoles, methods for producing same, pharmaceutical preparations that contain same, and use of same to produce drugs” (Bayer Pharma Aktiengesellschaft, priority 2016, dated 2019)
pIC50: −log10 of the molar value. Like-named read-outs stand apart in the source and are kept apart here.

Legend:
human IRAK4 = human IRAK4 (Homo sapiens (Human), UniProt Q9NWZ3); test: IRAK4 kinase assay (IRAK4 TR-FRET assay); type: biochemical; settings: 1 mM ATP
human IRAK4, sequence (Q9NWZ3 whole entry): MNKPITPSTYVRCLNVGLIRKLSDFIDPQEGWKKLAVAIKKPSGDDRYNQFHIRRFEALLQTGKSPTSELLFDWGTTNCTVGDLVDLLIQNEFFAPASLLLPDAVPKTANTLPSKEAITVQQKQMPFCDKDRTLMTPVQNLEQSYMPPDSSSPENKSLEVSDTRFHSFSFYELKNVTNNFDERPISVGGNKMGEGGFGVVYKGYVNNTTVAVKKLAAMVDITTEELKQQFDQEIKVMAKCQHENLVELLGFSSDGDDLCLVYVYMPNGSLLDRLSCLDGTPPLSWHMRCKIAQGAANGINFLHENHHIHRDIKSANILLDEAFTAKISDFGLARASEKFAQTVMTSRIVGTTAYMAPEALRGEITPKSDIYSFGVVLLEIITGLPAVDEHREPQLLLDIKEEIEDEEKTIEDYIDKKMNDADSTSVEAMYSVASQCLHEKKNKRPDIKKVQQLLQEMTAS
Experimental: The IRAK4-inhibitory activity of the substances according to the invention was measured in the IRAK4 TR-FRET assay (TR-FRET=Time Resolved Fluorescence Resonance Energy Transfer) described hereinafter.
Recombinant fusion protein from N-terminal GST (glutathione S-transferase) and human IRAK4, expressed in baculovirus-infected insect cells (Hi5, BTI-TN-5B1-4, cell line purchased from Invitrogen, catalogue No. B855-02) and purified via affinity chromatography, was used as enzyme. The substrate used for the kinase reaction was the biotinylated peptide biotin-Ahx-[…] (C-terminus in amide form) which can be purchased, for example, from Biosyntan GmbH (Berlin-Buch).
For the assay, 11 different concentrations in the range from 20 μM to 0.073 nM were prepared from a 2 mM solution of the test substance in DMSO. 50 nl of the respective solution were pipetted into a black low-volume 384-well microtitre plate (Greiner Bio-One, Frickenhausen, Germany), 2 μl of a solution of IRAK4 in assay buffer [50 mM HEPES pH 7.5, 5 mM MgCl2, 1.0 mM dithiothreitol, 30 μM activated sodium orthovanadate, 0.1% (w/v) of bovine gamma-globulin (BGG) 0.04% (v/v) nonidet-P40 (Sigma)] were added and the mixture was incubated for 15 min to allow prebinding of the substances to the enzyme prior to the kinase reaction. The kinase reaction was then started by addition of 3 μl of a solution of adenosine triphosphate (ATP, 1.67 mM=final concentration in 5 μl of assay volume: 1 mM) and peptide substrate (0.83 μM=final concentration in 5 μl assay volume: 0.5 μM) in assay buffer, and the resulting mixture was incubated at 22° C. for the reaction time of 45 min. The concentration of the IRAK4 was adjusted to the respective activity of the enzyme and set such that the assay was carried out in the linear range. Typical concentrations were in the order of about 0.2 nM. The reaction was stopped by addition of 5 μl of a solution of TR-FRET detection reagents [0.1 μM streptavidin-XL665 (Cisbio Bioassays; France, catalogue No. 610SAXLG)] and 1.5 nM anti-phosphoserine antibody [Merck Millipore, “STK Antibody”, catalogue No. 35-002] and 0.6 nM LANCE EU-W1024-labelled anti-mouse-IgG antibody (Perkin-Elmer, product No. AD0077; alternatively, it is possible to use a terbium cryptate-labelled anti-mouse-IgG antibody from Cisbio Bioassays) in aqueous EDTA solution (100 mM EDTA, 0.4% [w/v] bovine serum albumin [BSA] in 25 mM HEPES pH 7.5).
The resulting mixture was incubated at 22° C. for 1 h to allow formation of a complex of the biotinylated phosphorylated substrate and the detection reagents. The amount of the phosphorylated substrate was then evaluated by measuring the resonance energy transfer from europium chelate-labelled anti-mouse-IgG antibody to streptavidin-XL665. To this end, the fluorescence emissions at 620 nm and 665 nm were measured after excitation at 350 nm in a TR-FRET measuring instrument, for example a Rubystar (BMG Labtechnologies, Offenburg, Germany) or a Viewlux (Perkin-Elmer). The ratio of the emissions at 665 nm and 622 nm was taken as a measure of the amount of phosphorylated substrate. The data were normalized (enzyme reaction without test substance=0% inhibition; all other assay components but no enzyme=100% inhibition). Typically, the test substances were tested on the same microtitre plates at 11 different concentrations in the range from 20 μM to 0.073 nM (20 μM, 5.7 μM, 1.6 μM, 0.47 μM, 0.13 μM, 38 nM, 11 nM, 3.1 nM, 0.89 nM, 0.25 nM and 0.073 nM). The dilution series were prepared prior to the assay (2 mM to 7.3 nM in 100% DMSO) by serial dilutions. The IC50 values were calculated using a 4-parameter fit.

TMD-8 cells = test: Cell proliferation measurement in TMD-8 cells; type: cell-based, human; settings: Cell Titer Glo, read-out: IC50 with respect to proliferation inhibition in TMD-8 cells
Experimental: Cell Proliferation Measurement The antiproliferative activity of the inventive compounds of the general formula (I) was examined in vitro in human ABC-DLBCL cells (see Table 3). For this purpose 4000 TMD-8 cells (both from ATCC) at 30 μl/cavity in growth medium (RPMI (Biochrom: FG 1215), 20% FCS (Biochrom: S 0615)) were transferred into a 384-cavity plate (Perkin Elmer, white) and incubated at 37° C. overnight. After 24 h, cells on one plate (0 h plate) were treated with 30 μl/cavity of CTG solution (Promega Cell Titer Glo (catalogue # […] and […])) and incubated at room temperature for 10 min, and luminescence was measured by means of a VICTOR V (Perkin Elmer), in order to determine cell viability on commencement of treatment. The cells on the test plate were treated with the inventive compounds of the general formula (I) and incubated at 37° C. for 72 h. The compounds were added to the cells in a 7-stage, 3-fold dilution series using an HP D300 digital dispenser. As control, the cells were treated with vehicle (DMSO). After 72 h, the cells were treated with 30 μl/cavity of CTG solution (Promega Cell Titer Glo (catalogue # […] and […])) and incubated at room temperature for 10 min, and luminescence was measured by means of a VICTOR V (Perkin Elmer), in order to determine cell viability at the end of treatment. The percentage effect on cell growth and the IC50 derived therefrom were determined for each test substance using the values from the 0 h plate (=maximum inhibition) and the DMSO control (=minimum inhibition). The IC50 values were calculated using a 4-parameter fit.

pIC50 (human IRAK4)	Compound	pIC50 (TMD-8 cells; Homo sapiens, TMD8, 72 h)	pIC50 (TMD-8 cells; 72 h)
8.52	COc1cc2nn(C3CCOCC3)cc2cc1NC(=O)c1cccc(C(C)(C)O)n1 [Example 28, 6-(2-Hydroxypropan-2-yl)-N-[6-methoxy-2-(tetrahydro-2H-pyran-4-yl)-2H-indazol-5-yl]pyridine-2-carboxamide]	5.45	–
8.70	COc1cc2nn([C@@H]3C[C@@H]4C[C@H]3CN4C)cc2cc1NC(=O)c1cccc(C(F)(F)F)n1 (relative stereo) [Example 18, rel-N-{6-Methoxy-2-[(1S,4S,5R)-2-methyl-2-azabicyclo[2.2.1]hept-5-yl]-2H-indazol-5-yl}-6-(trifluoromethyl)pyridine-2-carboxamide]	5.46	–
9.00	COc1cc2nn(C3CCNCC3)cc2cc1NC(=O)c1cccc(C(F)(F)F)n1 [Example 2, N-[6-Methoxy-2-(piperidin-4-yl)-2H-indazol-5-yl]-6-(trifluoromethyl)pyridine-2-carboxamide]	5.06	–
8.70	COc1cc2nn(C3CC[S+]([O-])CC3)cc2cc1NC(=O)c1cccc(C(F)(F)F)n1 (racemic) [Example 12, rac-N-[6-Methoxy-2-(1-oxidotetrahydro-2H-thiopyran-4-yl)-2H-indazol-5-yl]-6-(trifluoromethyl)pyridine-2-carboxamide]	4.94	–
8.40	COc1cc2nn(C3CCS(=N)(=O)CC3)cc2cc1NC(=O)c1cccc(C(F)(F)F)n1 (single isomer, unassigned) [Example 20, N-[2-(1-Imino-1-oxidohexahydro-1λ^4-thiopyran-4-yl)-6-methoxy-2H-indazol-5-yl]-6-(trifluoromethyl)pyridine-2-carboxamide]	–	4.79
8.70	COc1cc2nn(C3CCOCC3)cc2cc1NC(=O)c1cccc(N2CCOCC2)n1 [Example 24, N-[6-Methoxy-2-(tetrahydro-2H-pyran-4-yl)-2H-indazol-5-yl]-6-(morpholin-4-yl)pyridine-2-carboxamide]	4.55	–
8.70	COc1cc2nn(C3CCN(C(=O)CO)CC3)cc2cc1NC(=O)c1cccc(C(F)(F)F)n1 [Example 5, N-[2-(1-Glycoloylpiperidin-4-yl)-6-methoxy-2H-indazol-5-yl]-6-(trifluoromethyl)pyridine-2-carboxamide]	4.81	–
8.30	CC(C)(O)c1cc2nn(C3CCS(=O)(=O)CC3)cc2cc1NC(=O)c1cccc(C(F)(F)F)n1 [Example 44, N-[2-(1,1-Dioxidotetrahydro-2H-thiopyran-4-yl)-6-(2-hydroxypropan-2-yl)-2H-indazol-5-yl]-6-(trifluoromethyl)pyridine-2-carboxamide]	4.73	–
9.00	COc1cc2nn(C3CCN(C)CC3)cc2cc1NC(=O)c1cccc(C(F)(F)F)n1 [Example 4, N-[6-Methoxy-2-(1-methylpiperidin-4-yl)-2H-indazol-5-yl]-6-(trifluoromethyl)pyridine-2-carboxamide]	5.39	–
8.52	COc1cc2nn(C3CCS(=N)(=O)CC3)cc2cc1NC(=O)c1cccc(C(F)(F)F)n1 (single isomer, unassigned) [Example 21, N-[2-(1-Imino-1-oxidohexahydro-1λ^4-thiopyran-4-yl)-6-methoxy-2H-indazol-5-yl]-6-(trifluoromethyl)pyridine-2-carboxamide]	4.83	–
8.52	COc1cc2nn(C3CCN(C4COC4)CC3)cc2cc1NC(=O)c1cccc(C(F)(F)F)n1 [Example 10, N-{6-Methoxy-2-[1-(oxetan-3-yl)piperidin-4-yl]-2H-indazol-5-yl}-6-(trifluoromethyl)pyridine-2-carboxamide]	4.63	–
9.00	COc1cc2nn(C3CCN(CCO)CC3)cc2cc1NC(=O)c1cccc(C(F)(F)F)n1 [Example 13, N-{2-[1-(2-Hydroxyethyl)piperidin-4-yl]-6-methoxy-2H-indazol-5-yl}-6-(trifluoromethyl)pyridine-2-carboxamide]	5.23	–
8.52	COc1cc2nn(C3CCOCC3)cc2cc1NC(=O)c1cccc(C(F)(F)F)n1 [Example 1, N-[6-Methoxy-2-(tetrahydro-2H-pyran-4-yl)-2H-indazol-5-yl]-6-(trifluoromethyl)pyridine-2-carboxamide]	4.55	–
9.00	COc1cc2nn(C3CCOCC3)cc2cc1NC(=O)c1cccc(C(F)F)n1 [Example 23, 6-(Difluoromethyl)-N-[6-methoxy-2-(tetrahydro-2H-pyran-4-yl)-2H-indazol-5-yl]pyridine-2-carboxamide]	5.07	–
8.52	CC(C)(O)c1cc2nn(C3CCNCC3)cc2cc1NC(=O)c1cccc(C(F)(F)F)n1 [Example 46, N-[6-(2-Hydroxypropan-2-yl)-2-(piperidin-4-yl)-2H-indazol-5-yl]-6-(trifluoromethyl)pyridine-2-carboxamide]	4.85	–
